{"source": "patent US20220332839A1", "about": "“USE OF PRG4 TO TREAT CANCER” (Lubris LLC, priority 2019, published 2022)", "test_system": "PLC/PRF/5", "experiment": "72-hour proliferation assay, PLC/PRF/5", "format": "cell-based, human", "conditions": "drug 2.5 μM", "method": "Proliferation assay: In 100 μl complete medium, 3,000 cells were seeded in wells of a 96-well plate and left overnight to allow complete attachment. The next day (at time t=0 hours), the medium was removed and replaced with 100 μl of fresh medium in the presence/absence of Sorafenib (2.5 μM), Regorafenib (2.5 μM), rhPRG4 (12.5 to 100 μg/ml). Dimethyl sulfoxide (DMSO) and PBS+0.01% Tween-20 were used as vehicles of Sorafenib/Regorafenib, and rhPRG4, respectively. Cells in triplicate wells for each cell line were fixed at t=0 hours with 4% paraformaldehyde (PFA, pH 7.6, 10 min incubation), then stained with crystal violet (CV) and thoroughly washed to remove the excess staining. After 72 hours, the cells were fixed by adding 100 μl of 4% PFA directly to the medium (2% final PFA concentration, 20 min incubation), and processed for CV staining as previously described. Then, 100 or 200 μl of 1% sodium dodecyl-sulphate were added to the wells and the plates were left under shaking until complete CV release from stained cells. Optical density was at 595 nm wavelength measured using a plate reader.", "data": [{"substance": "rhPRG4: full-length recombinant human PRG4 (lubricin) glycoprotein produced by CHO-M cells; residues 25-1404 of SEQ ID NO:1", "values": [{"measurement": "rhPRG4-drug synergistic effect", "result": "did not respond at all"}]}]}
